IC50 data for 6 compounds are collected here from patent US5286735A, “Derivatives of 4-aminomethylpiperidine, their preparation and their use as therapeutics” (Pierre Fabre Medicament, priority 1991, dated 1994).

As a reminder, the IC50 is the concentration that inhibits the measured activity by half. Higher therefore signals a need for much substance.

The test has as its target T1, serotoninergic 5-HT1A receptors (Rattus norvegicus, UniProt P19327).
T1 construct: The hippocampus is crushed with Polytron; from tissue; host or cells: rat hippocampus membranes (male Charles River rats)
T1 sequence (P19327 1-422): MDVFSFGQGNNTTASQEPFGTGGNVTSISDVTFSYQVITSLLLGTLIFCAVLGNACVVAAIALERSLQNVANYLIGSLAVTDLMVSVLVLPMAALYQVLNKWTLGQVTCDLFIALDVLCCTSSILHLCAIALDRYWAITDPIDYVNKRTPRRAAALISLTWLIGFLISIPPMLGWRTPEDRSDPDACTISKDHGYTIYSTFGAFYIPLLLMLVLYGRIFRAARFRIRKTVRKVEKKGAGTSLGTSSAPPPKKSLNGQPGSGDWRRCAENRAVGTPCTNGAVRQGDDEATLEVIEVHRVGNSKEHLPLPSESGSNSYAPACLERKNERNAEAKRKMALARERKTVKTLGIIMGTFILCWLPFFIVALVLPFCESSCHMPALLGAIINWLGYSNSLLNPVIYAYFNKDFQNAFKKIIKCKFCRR
In words: 5-HT1A binding studies (3H-8-OH-DPAT ligand, rat hippocampus membranes). On the set-up: species or system rat (male Charles River). The conditions noted are these: 3H-8-OH-DPAT 1 nM, 30 min at 25° C. The method, then: The 5-HT1A binding studies were carried out in accordance with Peroutka's technique (see: Peroutka, S. J.: J. Neurochem. 47:529-540, 1986). Male Charles River rats are stunned and decapitated, the brain is removed and dissected. The different cerebral areas obtained are used or preserved at minus 20° C. The hippocampus is crushed with Polytron® (20 seconds at 7) in 20 volumes of 50 mM Tris-HCl buffer (pH 7.7 at 25° C.) and centrifuged at 45,000 g for 10 min. The residue is separated, taken up in the same volume of Tris buffer and incubated for 10 min at 37° C., and then again centrifuged for 10 min at 45, 000 g. The residue is then taken up in 100 volumes of Tris-HCl buffer containing 10 μm of Pargyline, 4 mM CaCl2 and 0.1% ascorbic acid. The mixture obtained is Dounce homogenized.
The binding is effected starting with 0.8 ml of the above membrane suspension to which 0.1 ml of ^3 H-8-OH-DPAT ligand is added (in a concentration of 1 nM) and either 0.1 ml of Tris buffer (control) or the compound of the present invention is added. After incubation for 30 min at 25° C., the mixture is filtered on GF/B (Whatman) and rinsed with 5 ml of iced Tris-HCl buffer. The residue and the filter are finally introduced into a vial containing 3 ml of Instage® scintillating liquid (Packard) and the radioactivity is measured with a Packard counter (Tri-Carbs®). The IC50 are determined graphically for a ligand concentration of 1 nM.
For `O=C(c1ccccc1)N1CCC(CNCC2COc3ccccc3O2)CC1` (stereo not drawn) [Compound 9, 1-Benzoyl 4-(1,4-benzodioxan-2-ylmethylaminomethyl) piperidine], the concentration for half-maximal inhibition (IC50) came to 3 nM.

`Cc1cccc(C(=O)N2CCC(CNCC3Cc4ccccc4O3)CC2)c1` (stereo not drawn) [Compound 3, 1-(3-Methylbenzoyl) 4-[(2,3-dihydrobenzofuran-2-yl)methylaminomethyl] piperidine]: the IC50 stood at 7.5 nM. As for `Cc1cccc(C(=O)N2CCC(CNCC3CCc4ccccc4O3)CC2)c1` (stereo not drawn) [Compound 7, 1-(3-Methylbenzoyl) 4-[(3,4-dihydro 2[H].1-benzopyran-2-yl)methylaminomethyl] piperidine], the figure is 3.8 nM; as for `Cc1cccc(C(=O)N2CCC(CNCC3CCc4ccccc4C3)CC2)c1` (stereo not drawn) [Compound 5, 1-(3-Methylbenzoyl) 4-[(1,2,3,4-tetrahydronaphthalen-2-yl)methylaminomethyl] piperidine], 12.5 nM. As for `Cc1ccc(CN2CCC(CNCC3COc4ccccc4O3)CC2)cc1` (stereo not drawn) [Compound 17, 1-(4-Methylbenzyl) 4-(1,4-benzodioxan-2-ylmethylaminomethyl) piperidine], the figure is 4.4 nM; as for `Clc1cccc(CN2CCC(CNCC3COc4ccccc4O3)CC2)c1` (stereo not drawn) [Compound 22, 1-(3-Chlorobenzyl) 4-(1,4-benzodioxan-2-ylmethylaminomethyl) piperidine], 2.1 nM.
